Source: patent US12612343B2, “PSMA binder and use thereof” (priority 2020, dated 2026)
Where “and” joins values, the source holds several entries; their conditions need not be identical. Equal values may be shown once. Entries after “also recorded” stand apart in the source; their conditions may differ. Read-outs that look alike come from different tables or passages of the source. One block for each molecule: values may come before it.

Assays:
PSMA protein = PSMA protein (Homo sapiens, UniProt Q04609); assay: Affinity assay by Surface Plasmon Resonance (SPR); details: binding to PSMA protein
Sequence of PSMA protein (Q04609 whole entry): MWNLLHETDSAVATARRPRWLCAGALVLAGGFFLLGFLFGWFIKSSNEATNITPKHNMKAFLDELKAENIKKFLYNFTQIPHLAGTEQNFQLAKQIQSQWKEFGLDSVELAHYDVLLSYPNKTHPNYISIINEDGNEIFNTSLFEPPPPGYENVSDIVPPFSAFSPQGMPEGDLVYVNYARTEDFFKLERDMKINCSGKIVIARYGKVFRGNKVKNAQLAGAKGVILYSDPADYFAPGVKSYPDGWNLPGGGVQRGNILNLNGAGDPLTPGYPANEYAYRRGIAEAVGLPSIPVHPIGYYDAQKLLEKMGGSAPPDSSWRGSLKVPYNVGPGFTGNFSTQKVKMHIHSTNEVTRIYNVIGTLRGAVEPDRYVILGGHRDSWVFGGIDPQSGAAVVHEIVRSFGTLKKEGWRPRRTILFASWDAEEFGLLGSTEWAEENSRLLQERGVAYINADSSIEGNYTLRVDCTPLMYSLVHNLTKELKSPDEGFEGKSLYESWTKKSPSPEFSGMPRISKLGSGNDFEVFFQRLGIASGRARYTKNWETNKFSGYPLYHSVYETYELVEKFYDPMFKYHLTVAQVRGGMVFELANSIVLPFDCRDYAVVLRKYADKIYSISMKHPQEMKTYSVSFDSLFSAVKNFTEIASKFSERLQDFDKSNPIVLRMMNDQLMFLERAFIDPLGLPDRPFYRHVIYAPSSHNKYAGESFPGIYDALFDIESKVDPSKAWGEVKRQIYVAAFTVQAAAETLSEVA
Protocol: The binding capacity of HYNIC-PSMA-XL-2 and HYNIC-PSMA-XL-3 to PSMA protein was determined by Surface Plasmon Resonance (SPR).

[1] = tested on: prostate tumors versus bladder; assay: Comparative imaging study with existing PSMA imaging agents in 15 prostate cancer patients; assay type: in vivo, human; details: 3 groups, SPECT/CT or PET/CT (FIG. 19)
Text: 15 patients with prostate cancer were randomly divided into 3 groups. One group underwent ^99mTc-HYNIC-ALUG SPECT/CT, one group underwent ^68Ga-PSMA11 PET/CT, and one group underwent ^99mTc-HYNIC-PSMA-XL3 SPECT/CT.

[2] = tested on: biochemical recurrent prostate cancer; assay: Comparison of SPECT/CT and PET/CT in 10 patients with biochemical recurrent prostate cancer; assay type: in vivo, human; details: for patients found to have local recurrence in the prostatic fossa / positive rate of imaging: 5 patients per group; for positive rate of imaging: preliminary statistics; for Number of tumors / With or without local recurrence: per patient (No. 1-10), biochemical recurrence after radical prostatectomy
Protocol: 10 patients with biochemical recurrent prostate cancer were randomly divided into two groups. The basic clinical information of the two groups was similar: they both have previously received radical prostatectomy, and the current PSA of them were 1-3 ng/ml, and the GS score of them were 8-9. One group underwent ^68Ga-PSMA11 PET/CT, and the other group underwent ^99mTc-PSMA-XL SPECT/CT.

[3] = tested on: Human prostate cancer LNCaP cells (PSMA positive); assay: LNCaP cell uptake experiment; assay type: cell-based; details: for specific binding to PSMA-positive LNCaP cells: conclusion from the uptake and blocking experiment
Protocol: Human prostate cancer LNCaP cells (PSMA positive) were cultured in a RPMI 1640 medium containing 10% fetal bovine serum and 1% penicillin-streptomycin double antibody under 37° C. with 5% CO2 and saturated humidity in the incubator. When the cells reach log phase, they were digested with 0.25% trypsin, then the cells were collected and washed twice with PBS, after that a cell suspension was obtained for further culture. A fixed number of cell lines (1.0×10^6 cells/1 ml) was placed in each well of a 24-well cell culture dish, and the experiment was performed after the logarithmic growth phase.
The cells were divided into an experimental group and a blocking group. […] 6 groups of experiments were carried out in parallel. After 1 h, the culture medium was aspirated, placed in a γ-counting tube, and then washed three times with PBS. The washing solution and the culture medium were combined for storage. Then the cells were trypsinized, collected in another counting tube, and the percentage of cell uptake was calculated by a γ-counting tube.

[4] = tested on: prostate cancer tumors (PSMA expression); assay: SPECT/CT imaging of 10 patients with prostate cancer, with immunohistochemistry of surgical specimens; assay type: in vivo, human
Protocol: The patients were injected with about 740MBq of ^99mTc-HYNIC-PSMA-XL-3, and 2 hours later, they were examined by a Discovery 670 (GE, USA) scanner. Taking the right obturator internus muscle as the background, the target-to-background ratio (TBR) was calculated, and the results were shown in FIG. 15. […] Four of the five patients with primary prostate cancer underwent radical prostatectomy, and one of the three patients with biochemical recurrence prostate cancer underwent salvage lymph node dissection. Without knowing the results of ^99mTc-HYNIC-PSMA-XL-3 SPECT/CT, pathology specialists performed pathological analysis of samples. Representative sections were stained by immunohistochemistry method, deparaffinized in xylene and rehydrated in graded ethanol series. Antigen retrieval was performed with the aid of autoclave and retrieval buffer (Target Retrieval Solution, Dako). Mouse monoclonal antibody against PSMA (clone 3E6, Dako) was diluted at a 1:100 dilution and incubated overnight at 4° C., followed by immunodetection using the Histostain-Plus Detection Kit (Invitrogen). Stained sections were scanned using Nanozoomer 2.0-[…] (Hamamatsu Photonics) to generate digital overall images.

[5] = upper bound calculated from ka, as kd was beyond the detection limit, read-out: KD value (SPR method)

Kd (PSMA protein; [5]): < 0.00643 nM
SMILES: NNc1ccc(C(=O)NC(CCC(=O)O)C(=O)NC(CCC(=O)O)C(=O)NCc2ccc(C(=O)NC(Cc3ccc4ccccc4c3)C(=O)NCCCCC(NC(=O)NC(CCC(=O)O)C(=O)O)C(=O)O)cc2)cn1 (stereo not drawn) [HYNIC-PSMA-XL-2, Glu-Urea-Lys-2Nal-AMB-Glu-Glu-HYNIC]

Kd (PSMA protein; [5]): < 0.00486 nM
SMILES: NNc1ccc(C(=O)NC(CCC(=O)O)C(=O)NCc2ccc(C(=O)NC(Cc3ccc4ccccc4c3)C(=O)NCCCCC(NC(=O)NC(CCC(=O)O)C(=O)O)C(=O)O)cc2)cn1 (stereo not drawn) [HYNIC-PSMA-XL-3, Glu-Urea-Lys-2Nal-AMB-Glu-HYNIC]

Kd (PSMA protein; reference PSMA inhibitors, same method): 1.25 nM
SMILES: O=C(O)CCc1ccc(O)c(CN(CCN(CC(=O)O)Cc2cc(CCC(=O)NCCCCCC(=O)NCCCC[C@H](NC(=O)N[C@@H](CCC(=O)O)C(=O)O)C(=O)O)ccc2O)CC(=O)O)c1 [PSMA11, reference compound]

SMILES: O=C([O-])CN(CCN(CC(=O)[O-])Cc1cc(CCC(=O)NCCCCCC(=O)NCCCC[C@H](NC(=O)N[C@@H](CCC(=O)O)C(=O)O)C(=O)O)ccc1[O-])Cc1cc(CCC(=O)O)ccc1[O-].[68Ga+3].[OH3+] [^68Ga-PSMA11, reference compound]
distribution of radioactivity in the bladder [1]: higher radiophysiological distribution; also recorded: high physiological distributions in the bladder
patients found to have local recurrence in the prostatic fossa [2]: 1
positive rate of imaging [2]: 80%
Number of tumors [2]: 1 (2×) and 4 and 0 and 2
With or without local recurrence [2]: no (4×) and yes

SMILES: O=C(O)CCC(NC(=O)NC(CCCCNC(=O)C(Cc1ccc2ccccc2c1)NC(=O)c1ccc(CNC(=O)C(CCC(=O)O)NC(=O)C(CCC(=O)O)NC(=O)c2ccc(N[N]=[99Tc]345([Cl])[O]C(=O)C[N]3CC[N]4CC(=O)[O]5)nc2)cc1)C(=O)O)C(=O)O (stereo not drawn) [^99mTc-HYNIC/EDDA-PSMA-XL-2]
specific binding to PSMA-positive LNCaP cells [3]: highly specifically bind

SMILES: O=C(O)CCC(NC(=O)NC(CCCCNC(=O)C(Cc1ccc2ccccc2c1)NC(=O)c1ccc(CNC(=O)C(CCC(=O)O)NC(=O)c2ccc(N[N]=[99Tc]3([Cl])[O]C(=O)CNCCNCC(=O)[O]3)nc2)cc1)C(=O)O)C(=O)O (stereo not drawn) [^99mTc-HYNIC/EDDA-PSMA-XL-3]
percentage of cell uptake, Experimental group ([3]; LNCaP cells, 0.5 μCi per well, 1 h): 14.01 ± 1.11%
percentage of cell uptake, Blocking group ([3]; LNCaP cells, 1 h, excess 2-PMPA (1000-fold molar equivalent) added half an hour in advance): 2.66 ± 0.51%
patients found to have local recurrence in the prostatic fossa [2]: 1
positive rate of imaging [2]: 80%
Number of tumors ([2]; listed as 99mTc-PSMA-XL): 3 and 1 and 2 and 0 and 4
With or without local recurrence ([2]; listed as 99mTc-PSMA-XL): yes and no (4×)

SMILES: O=C(O)CCC(NC(=O)NC(CCCCNC(=O)C(Cc1ccc2ccccc2c1)NC(=O)c1ccc(CNC(=O)C(CCC(=O)O)NC(=O)c2ccc(N[N]=[99Tc]345([Cl])[O]C(=O)C[N]3CC[N]4CC(=O)[O]5)nc2)cc1)C(=O)O)C(=O)O (stereo not drawn) [^99mTc-HYNIC/EDDA-PSMA-XL-3]
specific binding to PSMA-positive LNCaP cells [3]: highly specifically bind
consistency of SPECT/CT tumor uptake with immunohistochemical PSMA expression of surgical specimens ([4]; patients who underwent surgery, listed as 99mTc-HYNIC-PSMA-XL-3): highly consistent
distribution of radioactivity in the bladder ([4]; patients, about 740 MBq, SPECT/CT 2 hours after injection, compared with tumor uptake): low
tumor targeting ([4]; patients, about 740 MBq, SPECT/CT 2 hours after injection, metastases such as lymph nodes/bone): high
distribution of radioactivity in the bladder ([1]; listed as 99mTc-HYNIC-PSMA-XL3): very low distribution of radioactivity
distribution of radioactivity in the bladder ([1]; listed as 99mTc-HYNIC-PSMA-XL-3): less distribution of radioactivity in the bladder
